The values below come from US20190204335A1, “Assay Method For Determining The Risk Of Pre-Eclampsia” (The Queen's University of Belfast, priority 2016, published 2019).

The structures appear in SMILES notation. “Also recorded” adds a separate entry of the source.

Test [1] deals with FKBPL. The test can be described thus: FKBPL protein level in HUVEC under hypoxia or normoxia (Western blotting). Type of test: cell-based, human. The following applies: 24 h, metformin 10 μM. How it is done: HUVEC cells were seeded and then exposed to hypoxia (1%) or normoxia (21%) for 24 h in the presence of metformin or vehicle control (VC). Protein lysates were prepared and FKBPL protein level measured using Western blotting.

Test [2] deals with FKBPL. Put plainly: FKBPL mRNA levels in HTR8.SV.neo cells. To be noted: 10 μM, 24 h, serum-containing medium. Type of test: cell-based. How it is done:
(§1) Trophoblast (HTR8.SV.neo, BeWo) and endothelial cells (HUVEC) were exposed to: • i. diabetic stimuli, in the form of highly oxidised and glycated low density lipoproteins (HOG-LDL, 25 μg/ml)/4HNE (10 μM) or high glucose (10, 20, 30, 40 mM); or • ii. hypoxia (1%) or DMOG (10 μM), before FKBPL/SIRT1 protein and RNA levels were measured.

The subject of test [3] is FKBPL. The test can be described thus: FKBPL protein expression in BeWo trophoblast cell line. Type of test: cell-based. To be noted: BeWo cells, 10 μM, serum-containing medium. The protocol:
as §1

With `CN(C)C(=N)N=C(N)N` [metformin], the “FKBPL expression normalised to vehicle control” value was “increasing the protein expression of FKBPL; also recorded: upregulates FKBPL” in the test on FKBPL [1] (hypoxia (1%)) and “No change in FKBPL levels; also recorded: does not affect levels of FKBPL” with FKBPL [1] (normoxia (21%)).
`CCCCCC(O)/C=C/C=O` (centres unmarked) [4-HNE]: the “FKBPL mRNA levels” value in the test with FKBPL [2] is reported as “No change”; in the test with FKBPL [2] (listed as 4HNE) it was “No change in FKBPL mRNA levels”. The FKBPL protein expression entry with FKBPL [3] is recorded as “downregulation of FKBPL protein expression”; in the test with FKBPL [3] (listed as 4HNE), “reduction in FKBPL protein levels”.
As for `COC(=O)CNC(=O)C(=O)OC` [DMOG], the “FKBPL mRNA levels” value in the test with FKBPL [2] is “reduction in FKBPL mRNA levels; also recorded: downregulation in FKBPL mRNA levels”. For the same compound, the FKBPL protein expression entry with FKBPL [3] is on record as “reduction; also recorded: downregulation of FKBPL protein expression”.
